One compound from PMC6934184, “Selective DNA-PKcs inhibition extends the therapeutic index of localized radiotherapy and chemotherapy” (The Journal of Clinical Investigation, 2019) can be followed below.

The target in this experiment is T1, PTK2 (FAK) (Homo sapiens, UniProt Q05397).
T1 construct: purchased Thermo Fisher Scientific (Life Technologies) SelectScreen
Kind of experiment: SelectScreen Z'LYTE. The format is biochemical. In outline:
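Percent values come from Thermo SelectScreen profiling of NU5455, combining activity and binding assays. CSF1R was run in Z'LYTE format at Km app ATP, and CAMK1 in Adapta format with ATP listed at 10.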

T1 sequence (Q05397 whole entry): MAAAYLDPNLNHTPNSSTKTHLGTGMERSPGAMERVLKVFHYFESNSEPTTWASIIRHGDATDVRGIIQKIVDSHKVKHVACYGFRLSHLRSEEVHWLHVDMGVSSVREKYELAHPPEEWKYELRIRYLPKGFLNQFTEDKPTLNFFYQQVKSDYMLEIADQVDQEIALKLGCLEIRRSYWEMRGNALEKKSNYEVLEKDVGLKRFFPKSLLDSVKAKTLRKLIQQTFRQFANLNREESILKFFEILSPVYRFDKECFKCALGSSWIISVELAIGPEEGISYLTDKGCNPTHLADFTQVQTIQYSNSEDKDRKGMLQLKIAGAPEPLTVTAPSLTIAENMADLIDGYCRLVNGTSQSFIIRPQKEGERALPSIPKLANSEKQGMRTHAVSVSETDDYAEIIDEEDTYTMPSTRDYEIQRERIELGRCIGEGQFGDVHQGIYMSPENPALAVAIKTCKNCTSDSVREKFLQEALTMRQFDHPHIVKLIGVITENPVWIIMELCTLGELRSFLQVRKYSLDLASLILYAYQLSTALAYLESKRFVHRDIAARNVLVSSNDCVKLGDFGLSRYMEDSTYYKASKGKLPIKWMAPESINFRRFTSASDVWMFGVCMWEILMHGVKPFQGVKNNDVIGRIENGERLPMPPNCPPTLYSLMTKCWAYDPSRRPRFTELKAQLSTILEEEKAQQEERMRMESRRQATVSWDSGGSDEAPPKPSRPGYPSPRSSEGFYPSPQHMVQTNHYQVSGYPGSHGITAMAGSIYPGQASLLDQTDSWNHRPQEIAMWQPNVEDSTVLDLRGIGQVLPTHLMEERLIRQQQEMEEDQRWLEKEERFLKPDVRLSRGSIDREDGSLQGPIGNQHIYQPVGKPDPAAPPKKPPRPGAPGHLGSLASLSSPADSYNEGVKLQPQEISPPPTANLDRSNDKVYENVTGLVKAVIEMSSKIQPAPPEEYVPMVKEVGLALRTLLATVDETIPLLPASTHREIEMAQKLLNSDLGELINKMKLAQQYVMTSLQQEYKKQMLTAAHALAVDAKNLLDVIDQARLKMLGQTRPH

In turn, `CN(C(=O)CN1CCOCC1)c1ccc2sc3c(-c4cccc5c(=O)cc(N6CC7CCC(C6)O7)oc45)cccc3c2c1` [NU5455] had an inhibition at 1 µM of 5.1%.
